Measurements taken from the supplement of paper PMC10307832.

Assays:
Experiment in all cases: relative viability (nuclei count vs DMSO), 5 days (fraction); higher = more cells survive
[1] = compound: CC1=CN=C(N=C1C2=CNC(=C2)C(=O)N[C@H](CO)C3=CC(=CC=C3)Cl)NC4=C(C=C(C=C4)F)Cl [VX-11e] + CC(=O)c1c(C)c2cnc(Nc3ccc(N4CCNCC4)cn3)nc2n(C2CCCC2)c1=O [Palbociclib] (partner 0.5 µM)
How it was run: (§1)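 Lung cancer cell lines in 1536-well plates were dosed by pin tool the day after seeding, either with one drug alone or with a fixed anchor-drug dose plus five library-drug doses (not always all listed) in √10 steps. After 5 days, cells were fixed and their nuclei stained in one step (final 0.05% Triton X-100, 1% formaldehyde, 1 ug/ml Hoechst), then counted on 4× images. Relative viability is the nuclei count in treated wells divided by that in vehicle wells. Values are medians of duplicate plates.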

[2] = compound: CC1=CN=C(N=C1C2=CNC(=C2)C(=O)N[C@H](CO)C3=CC(=CC=C3)Cl)NC4=C(C=C(C=C4)F)Cl [VX-11e] + CC(C)C[C@H](NC(=O)[C@H](Cc1ccccc1)NC(=O)c1cnccn1)B(O)O [Bortezomib] (partner 0.002 µM)
How it was run: as §1

[3] = compound: CC1=CN=C(N=C1C2=CNC(=C2)C(=O)N[C@H](CO)C3=CC(=CC=C3)Cl)NC4=C(C=C(C=C4)F)Cl [VX-11e] + COc1cc2c(Oc3ccc(NC(=O)C4(C(=O)Nc5ccc(F)cc5)CC4)cc3F)ccnc2cc1OCCCN1CCOCC1 [Foretinib] (partner 0.25 µM)
How it was run: as §1

[4] = compound: CC1=CN=C(N=C1C2=CNC(=C2)C(=O)N[C@H](CO)C3=CC(=CC=C3)Cl)NC4=C(C=C(C=C4)F)Cl [VX-11e] + CS(=O)(=O)N1CCN(Cc2cc3nc(-c4cccc5[nH]ncc45)nc(N4CCOCC4)c3s2)CC1 [Pictilisib] (partner 1 µM)
How it was run: as §1

Row | Cell Line | relative viability ([1]; first compound 0.04 µM) | relative viability ([1]; first compound 0.1265 µM) | relative viability ([1]; first compound 0.4 µM) | relative viability ([1]; first compound 4 µM) | relative viability ([2]; first compound 0.04 µM) | relative viability ([2]; first compound 0.1265 µM) | relative viability ([2]; first compound 0.4 µM) | relative viability ([2]; first compound 1.265 µM) | relative viability ([2]; first compound 4 µM) | relative viability ([3]; first compound 0.04 µM) | relative viability ([3]; first compound 0.1265 µM) | relative viability ([3]; first compound 0.4 µM) | relative viability ([3]; first compound 1.265 µM) | relative viability ([3]; first compound 4 µM) | relative viability ([4]; first compound 0.04 µM) | relative viability ([4]; first compound 0.1265 µM) | relative viability ([4]; first compound 1.265 µM) | relative viability ([4]; first compound 4 µM) | relative viability ([1]; first compound 1.265 µM) | relative viability ([4]; first compound 0.4 µM)
1 | LCLC-97TM1 | 0.202 | 0.176 | 0.194 | 0.114 | 0.591 | 0.675 | 0.943 | 0.339 | 0.107 | 0.955 | 0.811 | 0.826 | 0.455 | 0.332 | 0.137 | 0.138 | 0.143 | 0.0889 |  | 
2 | LCLC-103H | 0.469 | 0.435 | 0.502 | 0.448 | 1.07 | 1.11 | 1.03 | 0.658 | 0.917 | 0.867 | 0.694 | 0.858 | 0.656 | 0.67 | 0.516 | 0.509 | 0.442 | 0.439 | 0.456 | 0.582
3 | LOU-NH91 | 0.533 | 0.509 |  | 0.521 | 0.494 | 0.502 |  | 0.486 | 0.457 | 0.92 | 0.896 | 0.577 | 0.94 | 0.782 | 0.474 | 0.54 | 0.501 | 0.504 | 0.487 | 
4 | LU99A | 0.334 | 0.373 | 0.443 | 0.228 | 0.965 | 0.984 | 0.769 | 0.284 | 0.239 | 0.806 | 0.729 | 0.894 | 0.805 | 0.362 | 0.285 | 0.283 | 0.278 | 0.155 | 0.326 | 0.385
5 | LXF-289 | 0.633 | 0.61 |  | 0.473 | 1.07 | 0.96 | 0.764 | 0.734 | 0.665 | 1 | 0.877 | 0.88 | 0.85 | 0.637 | 0.785 | 0.754 | 0.686 | 0.333 | 0.618 | 0.66
6 | NCI-H23 | 0.453 | 0.416 | 0.425 | 0.203 | 0.911 | 0.81 | 0.25 | 0.935 | 0.367 | 0.896 | 0.984 |  | 0.767 | 0.472 | 0.35 | 0.437 | 0.31 | 0.19 | 0.382 | 0.176
7 | NCI-H322M | 0.45 | 0.417 | 0.539 | 0.462 | 1.08 |  | 1.24 | 1.09 | 0.987 | 0.924 | 0.748 | 0.981 | 0.763 | 0.659 | 0.496 |  | 0.439 | 0.389 | 0.453 | 0.453
8 | NCI-H441 | 0.175 | 0.232 |  | 0.165 | 0.54 | 0.436 |  | 0.963 | 0.432 | 1.14 | 1.2 |  | 1.05 | 0.937 | 0.349 | 0.518 | 0.371 | 0.24 | 0.157 | 
9 | NCI-H460 | 0.198 | 0.195 | 0.146 | 0.0179 | 1.15 | 0.986 | 0.91 | 0.648 | 0.102 | 0.872 | 0.984 | 0.896 | 0.872 | 0.189 | 0.306 | 0.27 | 0.173 | 0.1 | 0.0404 | 0.141
10 | NCI-H520 | 0.202 | 0.254 | 0.232 | 0.292 | 0.621 | 0.49 | 0.636 | 0.486 | 0.474 | 0.746 | 0.715 | 0.69 | 0.919 | 0.569 | 0.267 | 0.276 | 0.274 | 0.336 | 0.244 | 0.34
11 | NCI-H647 | 0.37 | 0.346 | 0.372 | 0.217 | 0.892 | 0.964 | 0.584 | 0.491 | 0.477 | 1.26 | 1.12 | 1.19 | 1.05 | 0.405 | 0.32 | 0.26 | 0.381 | 0.132 | 0.256 | 0.122
12 | NCI-H650 | 0.358 | 0.487 | 0.519 | 0.491 |  | 0.692 | 1.23 |  | 0.87 | 1.09 | 1.04 | 1.1 | 0.993 | 1.1 |  | 0.927 |  | 0.819 | 0.329 | 1.23
13 | NCI-H661 | 0.375 | 0.406 | 0.348 | 0.379 | 0.791 | 0.899 | 0.819 | 0.683 | 0.583 | 1.03 | 1.04 | 1.05 | 1.07 | 0.66 | 0.324 | 0.462 | 0.403 | 0.363 | 0.402 | 0.4
14 | NCI-H727 | 0.589 | 0.358 | 0.602 | 0.412 | 0.686 | 0.68 | 0.519 | 0.513 | 0.29 | 0.76 | 0.775 | 0.846 | 0.55 | 0.302 | 0.243 | 0.451 | 0.238 | 0.173 | 0.559 | 0.314
15 | NCI-H838 | 0.225 | 0.187 | 0.18 | 0.203 | 0.985 | 0.703 | 0.608 | 0.527 | 0.515 | 1.03 | 1.11 | 1.05 | 1.1 | 0.779 | 0.333 | 0.435 | 0.424 | 0.292 | 0.214 | 0.266
16 | NCI-H1355 | 0.432 | 0.382 | 0.382 | 0.216 | 1.01 | 1.17 | 0.614 | 1.11 | 0.763 | 0.93 | 0.94 | 0.933 | 0.883 | 0.543 | 0.263 | 0.194 | 0.3 | 0.232 | 0.319 | 0.166
17 | NCI-H1437 | 0.323 | 0.24 | 0.321 | 0.222 | 0.597 | 0.316 | 0.306 | 0.312 | 0.202 | 1.27 | 1.25 | 1.32 | 1.36 | 0.677 | 0.36 | 0.281 | 0.163 | 0.124 | 0.224 | 0.356
18 | NCI-H1650 | 0.314 | 0.258 | 0.158 | 0.28 | 0.192 | 0.198 | 0.235 | 0.199 | 0.195 | 1.14 | 0.972 |  | 1.02 | 0.711 | 0.531 | 0.451 | 0.276 | 0.303 | 0.253 | 0.171
19 | NCI-H1651 | 0.526 | 0.493 | 0.492 | 0.498 | 0.946 | 0.879 | 0.921 | 0.922 | 0.871 | 0.89 | 0.724 | 0.781 | 0.745 | 0.667 | 0.494 | 0.519 | 0.548 | 0.536 | 0.449 | 0.504
20 | NCI-H1666 | 0.616 | 0.632 |  | 0.72 | 0.877 | 0.862 | 0.627 | 0.678 | 0.505 | 0.957 | 0.853 | 0.87 | 0.692 | 0.546 | 0.511 | 0.406 | 0.336 | 0.294 | 0.68 | 0.367
21 | NCI-H1734 | 0.342 | 0.382 | 0.355 | 0.224 | 0.965 | 0.826 | 0.726 | 0.513 | 0.365 | 0.941 | 0.852 | 0.81 | 0.706 | 0.344 | 0.358 | 0.39 | 0.31 | 0.245 | 0.327 | 0.376
22 | NCI-H1755 | 0.429 | 0.404 | 0.45 | 0.417 | 0.965 | 0.931 | 0.884 | 0.923 | 0.608 | 0.925 | 0.931 | 0.905 | 0.945 | 0.598 | 0.397 | 0.337 | 0.357 | 0.16 | 0.43 | 0.152
23 | NCI-H1915 | 0.546 | 0.465 | 0.481 | 0.217 | 1.02 | 0.923 | 1.03 | 0.939 | 0.757 | 1.12 | 1.08 | 1.16 | 1.13 | 0.791 | 0.556 | 0.757 | 0.627 | 0.282 | 0.433 | 0.636
24 | NCI-H1975 | 0.543 | 0.411 | 0.169 | 0.17 | 0.475 | 0.372 | 0.301 | 0.281 | 0.178 | 1.02 | 0.949 | 1.01 | 1.08 | 0.46 | 0.237 | 0.278 | 0.222 | 0.202 | 0.391 | 0.2
25 | NCI-H1993 |  | 0.708 | 0.607 | 0.503 |  | 1.04 |  | 0.742 | 0.765 | 0.786 | 0.818 | 0.857 | 0.734 | 0.667 |  | 0.805 | 0.814 | 0.865 | 0.559 | 
26 | NCI-H2009 | 0.177 | 0.171 | 0.187 | 0.0988 | 1.08 | 0.944 | 0.797 | 0.254 | 0.201 | 1.33 | 1.18 | 1.06 | 0.857 | 0.509 | 0.712 | 0.671 | 0.23 | 0.186 | 0.158 | 0.478
27 | NCI-H2023 | 0.336 | 0.338 | 0.251 | 0.111 | 0.993 | 1.03 | 0.098 | 0.394 | 0.418 | 0.811 | 0.771 |  | 0.513 | 0.42 | 0.2 | 0.215 | 0.151 | 0.119 | 0.203 | 0.0991
28 | NCI-H2085 | 0.498 | 0.437 | 0.457 | 0.366 | 1.04 | 0.979 | 1.03 | 0.898 | 0.825 | 0.973 | 0.951 | 0.725 | 0.835 | 0.679 | 0.361 | 0.51 | 0.452 | 0.357 | 0.404 | 0.441
